Paper PMC10674166, “Sustainable Immobilization of β-Glucosidase onto Silver Ions and AgNPs-Loaded Acrylic Fabric with Enhanced Stability and Reusability” (Polymers, 2023)

Test system: T1, β-glucosidase from almonds (β-Glu)
T1 construct: gene AH; free enzyme
Assay: p-nitrophenol release at […] nm, Lineweaver-Burk
Assay type: biochemical
Conditions: free enzyme; standard assay 0.1 M sodium acetate pH 6.0, 37 °C (pH and temperature of the kinetic runs not restated); apparent constant

Km: 2600 µM
SMILES: O=[N+]([O-])c1ccc(O[C@@H]2O[C@H](CO)[C@@H](O)[C@H](O)[C@H]2O)cc1 [p-nitrophenyl-β-D-glucopyranoside]
